Earlier results, collected in US12404360B2, “Method of preparing graft copolymer” (LG CHEM, LTD., priority 2019, dated 2025).

Key:
[1] = not given; remark: listed apart in the source

| SMILES | Solubility in water at 20° C. | 10-hour half-life decomposition temperature in toluene [1] | 10-hour half-life decomposition temperature in water [1] | 10-hour half-life decomposition temperature in methanol ([1]; in methanol) |
| --- | --- | --- | --- | --- |
| CC(C)(C#N)/N=N/C(C)(C)C#N [AIBN] | < 0.1 g/100 g | 65 °C | – | – |
| CC(C)CC(C)(C#N)/N=N/C(C)(C#N)CC(C)C (stereo not drawn) [Example V-65] | < 0.1 g/100 g | 51 °C | – | – |
| CC(C)(/N=N/C(C)(C)C1=NCCN1)C1=NCCN1 [VA-044] | 35.2 g/100 g | – | 44 °C | – |
| CC(C)(/N=N/C(C)(C)C(=N)N)C(=N)N [VA-050] | – | – | 56 °C | – |
| CC(C)(/N=N/C(C)(C)C(=N)NCCC(=O)O)C(=N)NCCC(=O)O [VA-057] | 14 g/100 g | – | 57 °C | – |
| CC(C)(/N=N/C(C)(C)C1=NCCN1)C1=NCCN1 [VA-061] | 0.5 g/100 g | – | – | 61 °C |
| CC(C)(/N=N/C(C)(C)C(=O)NCCO)C(=O)NCCO [VA-086] | 2.4 g/100 g | – | 86 °C | – |
| CC(C#N)(CCC(=O)O)/N=N/C(C)(C#N)CCC(=O)O (stereo not drawn) [VA-501] | 0.1 g/100 g | – | 69 °C | – |
